Experimental data published in paper PMC9558053, “Development of a novel high-throughput screen for the identification of new inhibitors of protein S-acylation” (The Journal of Biological Chemistry, 2022).

Test system: endogenous SNAP23 S-acylation in HEK293T cells
Experiment: mPEG-click S-acylation of endogenous SNAP23 in HEK293T cells
Format: cell-based, human
Conditions: 25 and 50 μM, 4 h pretreatment + 4 h labeling
Source text: Finally, we tested whether TTZ-1 and TTZ-2 were able to block the S-acylation of endogenous proteins in the absence of zDHHC enzyme overexpression. In order to detect the S-acylation of endogenous proteins, we used mPEG-click, a technique that we developed recently ([49]) that is better suited for the click chemistry–based analysis of S-acylation of endogenously expressed proteins. In this assay, cells are labeled with either palmitate (C16:0), or C16:0-azide, lysed, and then subjected to click chemistry with alkyne-mPEG 5K. The addition of mPEG 5K moieties to S-acylated proteins increases their apparent molecular weight, which can be detected directly by immunoblotting. HEK293T cells were pretreated for 4 h with either TTZ-1 or TTZ-2 at 25 and 50 μM and then labeled with fatty acids for another 4 h in the presence of the compounds. We first assessed the S-acylation of endogenous SNAP23 as it is a close relative of SNAP25 (SNAP25 is not expressed in the non-neuronal HEK293T cell line) ([50], [51]). […]
Figure 10 Activity of TTZ-1 and TTZ-2 against the S-acylation of endogenous proteins in mammalian cells. […] The data were quantified, and the graphs below each set of membranes show mean ± SEM of normalized S-acylation of either endogenous SNAP23 (A) or endogenous calnexin (B). […]

Compound | S-acylation of endogenous SNAP23
CCCCCCCOc1ccc(C(=O)Nc2cccc3c2OC(c2nnn[nH]2)CN3)cc1 (centres unmarked) [TTZ-1, N-(2-(1H-Tetrazol-5-yl)-3,4-dihydro-2H-benzo[b][1,4]oxazin-8-yl)-4-(heptyloxy)benzamide] | significant reduction
O=C(Nc1cccc2c1OC(c1nnn[nH]1)CN2)c1ccc(OCCCCc2ccccc2)cc1 (centres unmarked) [TTZ-2, N-(2-(1H-Tetrazol-5-yl)-3,4-dihydro-2H-benzo[b][1,4]oxazin-8-yl)-4-(4-phenylbutoxy)benzamide] | significant reduction
